According to the supplement of paper PMC11208160:

Test: recombinant barcode read abundance after kanamycin selection (control-corrected) (log10(CPM+1)); higher = more efficient recombination; sequences stand for … in AGTGCAGAGAAAATCGGCCAGTTTTCTCTGCCTGCAGTCCGCATGCCGT…AGATTTATGCAGCGGACTGCCTTTCTCCCAAAGTGATAAACCGGACAGTATCATGGACCGGTTTTCCCGGTAATCCGTATTTGCAAGGTTGGTTTCACT; site = the 11-nt target
Summary of the method: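 Targets were screened in pooled form in E. coli against IS621 bridge RNA target-binding loops. Recombination efficiency is based on barcode counts at recombinant junctions in counts per million, averaged and corrected for the control. Numbers are shown as log10(CPM+1), with duplicate plates on chloramphenicol/ampicillin LB agar (control) or chloramphenicol/ampicillin/kanamycin with 0.1 mM IPTG.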
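Note: IS621 recombinase and bridge RNA in Escherichia coli cells.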

| Sequence | recombinant barcode read abundance (log10) |
| --- | --- |
| TAACTTACTTGGGTTCTAACCTGTTGCAT (site TAACATACTAT) | 0.179 |
| TAACTTACTTGGGTTCTAACCTGTTGCAT (site TAACCTACTAT) | 0.0991 |
| TAACTTACTTGGGTTCTAACCTGTTGCAT (site TAACGTACTAT) | 0.0567 |
| TAACTTACTTGGGTTCTAACCTGTTGCAT (site TAACTTACTAT) | 0.341 |
| TAAGATGCTTGGGTTCTAACCTGTTGCGG (site GCGACATCTAG) | 0.0149 |
| TAAGATGCTTGGGTTCTAACCTGTTGCGG (site TAAGATGCTCC) | 1.78 |
| TAAGGCCCTTGGGTTCTAACCTGTTGCTT (site TAAGGCCCTAA) | 1.56 |
| TAAGGCCCTTGGGTTCTAACCTGTTGCTT (site TCAGGCCCTAG) | 0.33 |
| TAAGTCCCTTGGGTTCTAACCTGTTGCCT (site AAAGTCCCTAG) | 0.233 |
| TAAGTCCCTTGGGTTCTAACCTGTTGCCT (site CAAGTCCCTAG) | 0.583 |
| TAAGTCCCTTGGGTTCTAACCTGTTGCCT (site GAAGTCCCTAG) | 0.017 |
| TAAGTCCCTTGGGTTCTAACCTGTTGCCT (site TAAGTCCCTAG) | 1.9 |
| TAATCGCCTTGGGTTCTAACCTGTTGCCT (site TAATCGACTAG) | 0.122 |
| TAATCGCCTTGGGTTCTAACCTGTTGCCT (site TAATCGCCTAG) | 0.126 |
| TAATCGCCTTGGGTTCTAACCTGTTGCCT (site TAATCGGCTAG) | 0.102 |
| TAATCGCCTTGGGTTCTAACCTGTTGCCT (site TAATCGTCTAG) | 0 |
| TAATCTCCTTGGGTTCTAACCTGTTGCGT (site GGTGGCTCTTG) | 0.0934 |
| TAATCTCCTTGGGTTCTAACCTGTTGCGT (site TAATCTCCTAC) | 0.167 |
| TAATGACCTTGGGTTCTAACCTGTTGCTT (site TAATGACCTAA) | 0.816 |
| TAATGACCTTGGGTTCTAACCTGTTGCTT (site TAATGACCTAT) | 0.123 |
| TAATGTACTTGGGTTCTAACCTGTTGCTT (site TAAAGTACTAA) | 0.0506 |
| TAATGTACTTGGGTTCTAACCTGTTGCTT (site TAACGTACTAA) | 0.0626 |

| Sequence | recombinant barcode read abundance (log10) |
| --- | --- |
| TAATGTACTTGGGTTCTAACCTGTTGCTT (site TAAGGTACTAA) | 0.195 |
| TAATGTACTTGGGTTCTAACCTGTTGCTT (site TAATGTACTAA) | 0.0687 |
| TACAACACTTGGGTTCTAACCTGTTGCGT (site GTAGGTCCTCG) | 0.318 |
| TACAACACTTGGGTTCTAACCTGTTGCGT (site TACAACACTAC) | 1.71 |
| TACAAGTCTTGGGTTCTAACCTGTTGCGG (site TACAAGGCTCC) | 0.0774 |
| TACAAGTCTTGGGTTCTAACCTGTTGCGG (site TACAAGTCTCC) | 1.88 |
| TACACGACTTGGGTTCTAACCTGTTGCGG (site TACACGACTCC) | 1.51 |
| TACACGACTTGGGTTCTAACCTGTTGCGG (site TACACTACTCG) | 0 |
| TACAGAGCTTGGGTTCTAACCTGTTGCGG (site TAAAGAGCTCC) | 0.363 |
| TACAGAGCTTGGGTTCTAACCTGTTGCGG (site TACAGAGCTCC) | 2.36 |
| TACAGAGCTTGGGTTCTAACCTGTTGCGG (site TAGAGAGCTCC) | 0.127 |
| TACAGAGCTTGGGTTCTAACCTGTTGCGG (site TATAGAGCTCC) | 0.488 |
| TACAGGACTTGGGTTCTAACCTGTTGCAG (site TACAGGACTCT) | 2.15 |
| TACAGGACTTGGGTTCTAACCTGTTGCAG (site TAGAGGACTCT) | 0.274 |
| TACAGTTCTTGGGTTCTAACCTGTTGCTT (site TACAGTTCTAA) | 0.173 |
| TACAGTTCTTGGGTTCTAACCTGTTGCTT (site TACCATTCTAA) | 0.107 |
| TACATCCCTTGGGTTCTAACCTGTTGCCT (site TACATCCCTAG) | 0.915 |
| TACATCCCTTGGGTTCTAACCTGTTGCCT (site TACATCCCTCG) | 0.0996 |
| TACATCCCTTGGGTTCTAACCTGTTGCCT (site TACATCCCTGG) | 0.0929 |
| TACATCCCTTGGGTTCTAACCTGTTGCCT (site TACATCCCTTG) | 0.0395 |
| TACCCACCTTGGGTTCTAACCTGTTGCAG (site CCGAATTCTAA) | 0.159 |
| TACCCACCTTGGGTTCTAACCTGTTGCAG (site TACCCACCTCT) | 2.41 |

| Sequence | recombinant barcode read abundance (log10) |
| --- | --- |
| TACCCTACTTGGGTTCTAACCTGTTGCTA (site TACCCGCCTTA) | 0.146 |
| TACCCTACTTGGGTTCTAACCTGTTGCTA (site TACCCTACTTA) | 0.736 |
| TACCGAGCTTGGGTTCTAACCTGTTGCTG (site CCTGTCACTTG) | 0.377 |
| TACCGAGCTTGGGTTCTAACCTGTTGCTG (site TACCGAGCTCA) | 0.604 |
| TACCGCTCTTGGGTTCTAACCTGTTGCTT (site TACAGCTCTAA) | 0.0488 |
| TACCGCTCTTGGGTTCTAACCTGTTGCTT (site TACCGCTCTAA) | 1.01 |
| TACCGCTCTTGGGTTCTAACCTGTTGCTT (site TACGGCTCTAA) | 0.043 |
| TACCGCTCTTGGGTTCTAACCTGTTGCTT (site TACTGCTCTAA) | 0.158 |
| TACCGTCCTTGGGTTCTAACCTGTTGCAT (site TACCGTCCTAT) | 1.18 |
| TACCGTCCTTGGGTTCTAACCTGTTGCAT (site TATCGTCCTAT) | 0.155 |
| TACCGTCCTTGGGTTCTAACCTGTTGCGG (site GCGTCCTCTAA) | 0.312 |
| TACCGTCCTTGGGTTCTAACCTGTTGCGG (site TACCGTCCTCC) | 1.8 |
| TACCTTACTTGGGTTCTAACCTGTTGCAG (site AGAAGATCTAG) | 0.17 |
| TACCTTACTTGGGTTCTAACCTGTTGCAG (site TACCTTACTCT) | 0.897 |
| TACGAATCTTGGGTTCTAACCTGTTGCCT (site TACGAATCTAG) | 0.881 |
| TACGAATCTTGGGTTCTAACCTGTTGCCT (site TACGAATCTCG) | 0.0232 |
| TACGACACTTGGGTTCTAACCTGTTGCCT (site TACGACACTAG) | 1.9 |
| TACGACACTTGGGTTCTAACCTGTTGCCT (site TCCGACACTAG) | 0.0501 |
| TACGACTCTTGGGTTCTAACCTGTTGCTT (site TACGACTCTAA) | 1.73 |
| TACGACTCTTGGGTTCTAACCTGTTGCTT (site TTCGACTCTTA) | 0.0713 |
| TACGCACCTTGGGTTCTAACCTGTTGCGA (site GTAATTACTAG) | 0.297 |
| TACGCACCTTGGGTTCTAACCTGTTGCGA (site TACGCACCTTC) | 1.03 |

| Sequence | recombinant barcode read abundance (log10) |
| --- | --- |
| TACGCGGCTTGGGTTCTAACCTGTTGCCT (site TACGAGGCTAG) | 0.0562 |
| TACGCGGCTTGGGTTCTAACCTGTTGCCT (site TACGCGGCTAG) | 0.335 |
| TACGCGGCTTGGGTTCTAACCTGTTGCCT (site TACGGGGCTAG) | 0.208 |
| TACGCGGCTTGGGTTCTAACCTGTTGCCT (site TACGTGGCTAG) | 0.192 |
| TACGCTCCTTGGGTTCTAACCTGTTGCCT (site TACGCTCCTAA) | 0.0709 |
| TACGCTCCTTGGGTTCTAACCTGTTGCCT (site TACGCTCCTAC) | 0 |
| TACGCTCCTTGGGTTCTAACCTGTTGCCT (site TACGCTCCTAG) | 0.271 |
| TACGCTCCTTGGGTTCTAACCTGTTGCCT (site TACGCTCCTAT) | 0.452 |
| TACGGCTCTTGGGTTCTAACCTGTTGCTT (site TACAGCTCTAA) | 0.297 |
| TACGGCTCTTGGGTTCTAACCTGTTGCTT (site TACCGCTCTAA) | 0.0429 |
| TACGGCTCTTGGGTTCTAACCTGTTGCTT (site TACGGCTCTAA) | 1.51 |
| TACGGCTCTTGGGTTCTAACCTGTTGCTT (site TACTGCTCTAA) | 0.0509 |
| TACTAAGCTTGGGTTCTAACCTGTTGCTT (site TACTAAGCTAA) | 0.184 |
| TACTAAGCTTGGGTTCTAACCTGTTGCTT (site TACTAAGCTAC) | 0.0381 |
| TACTAAGCTTGGGTTCTAACCTGTTGCTT (site TACTAAGCTAG) | 0.0797 |
| TACTAAGCTTGGGTTCTAACCTGTTGCTT (site TACTAAGCTAT) | 0.321 |
| TACTACCCTTGGGTTCTAACCTGTTGCGT (site TACTACCCTAC) | 0.358 |
| TACTACCCTTGGGTTCTAACCTGTTGCGT (site TGCCACCCTAC) | 1.28 |
| TACTCCTCTTGGGTTCTAACCTGTTGCGG (site CTAAAAGCTTG) | 0.0539 |
| TACTCCTCTTGGGTTCTAACCTGTTGCGG (site TACTCCTCTCC) | 0.155 |
